This note sets out measurements from patent US9200047B2, “SSX-2 peptides presented by HLA class II molecules” (Ludwig Institute for Cancer Research, Ltd., priority 2003, dated 2015).

Holding throughout (assay type): cell-based, human
The test system of assay [1] is SSX-2 specific CD4^+ T cells (clone 2C3). Description: IFN-γ secretion (ELISA) by SSX-2 specific CD4+ T cell clone in response to extended or truncated peptides. The following applies: for peptide recognition relative to SEQ ID NO:1 (IFN-γ secretion): clone 2C3, EBV LAU 149 as APC, serial peptide dilutions, ELISA after 24 hrs. How it is done: FIG. 2 depicts determination of the minimal sequence optimally recognized by SSX-2 specific CD4^+ T cells. Synthetic peptides extended or truncated at the SSX-213-34 N- or C-terminus were used to determine the minimal length of the epitope recognized by SSX-2 specific CD4^+ T cells. Serial dilutions of each peptide were incubated with EBV LAU 149 and SSX-2 specific CD4^+ T cells. IFN-γ secretion was determined by ELISA in the culture supernatant after 24 hrs of culture. The peptides tested were: […] (SSX-213-34; SEQ ID NO:1); […] (SSX-213-36; SEQ ID NO:2); […] (SSX-213-32; SEQ ID NO:3); VGAQIPEKIQKAFDDIAK (SSX-213-30; SEQ ID NO:4); IPEKIQKAFDDIAKYFSK (SSX-217-34; SEQ ID NO:5); EKIQKAFDDIAKYFSK (SSX-219-34; SEQ ID NO:6); IQKAFDDIAKYFSK (SSX-221-34; SEQ ID NO:7) and […] (SSX-261-82; SEQ ID NO:30).
(§1) For intracellular cytokine secretion detection T cells were incubated with APC at a 1:1 T cells:APC ratio during 4-6 h in the absence or in the presence of peptides at the indicated dose. One hour after the beginning of the incubation Brefeldin A (20 μg/ml, Sigma Chemical Co., Steinheim, Germany) was added to inhibit cytokine secretion. At the end of the incubation period cells were stained with anti-CD4 mAb for 20 min at 4° C. and fixed. Cells were then permeabilized using saponine (Sigma, 0.1% in PBS 10% FCS) stained by incubation with mAb against IFN-γ or IL-2 (BD, Pharmingen) and analyzed by flow cytometry. Data analysis was performed using Cell Quest software. For detection of cytokine secretion in the culture supernatant T cells (10,000) were incubated with stimulating cells (15,000/well) in 96-well round-bottom plates in 200 μl/well of IMDM containing 10% human serum and 20 U/ml hrIL2. After 24 h incubation at 37° C., culture supernatants were collected and the content of IFN-γ determined by ELISA (BioSource Europe, Fleurus, Belgium). IFN-γ ELISPOT assay was performed as described previously (Ayyoub M. et al, 2002, J Immunol 32:2292-2299) using nitrocellulose-lined 96-well microplates (MAHA S45: Millipore, Bedford, Mass.) and an IFN-γ ELISPOT kit (DIACLONE, Besancon, France). Stimulator cells (5×10^4/well) were added together with the indicated number of T cells and peptide (2 μM) where indicated. Spots were counted using a stereomicroscope with a magnification of ×15.
To more precisely define the SSX-2-derived peptide optimally recognized by specific CD4^+ T cells from patient 672, we analyzed the relative capacity of peptide SEQ ID to NO:1 extended or truncated variants to stimulate IFN-γ secretion by specific clonal T cells (clone 2C3). […] Similar results were obtained using another CD4^+ T cell clone (not shown).
For orientation: In an ELISA, binding on a coated surface is turned into a signal by an enzyme label.

In assay [2] the test system is SSX-2 specific CD4^+ T cells. In words: Presentation of exogenously added peptide by melanoma cell lines to specific CD4+ T cell clones (ELISPOT). The following applies: two lines, Me 260 and T465A. How it is done: FIGS. 4A and 4B show the lack of tumor recognition by SSX-2 13-34 specific CD4^+ T cells. FIG. 4A: Recognition of Me 260 cells by CD4+ T cells was tested by ELISPOT in the absence or in the presence of exogeneously added peptide SSX-213-34. Where indicated, cells were treated with IFN-γ during 48 hr. FIG. 4B: Recognition of T465A was assessed as in […] as well as upon transfection with an SSX-2 encoding plasmid. The CD8+ T cell clone B3.4 specific for peptide SSX-2 41-49 was used as an internal control.
For intracellular cytokine secretion detection T cells were incubated with APC at a 1:1 T cells:APC ratio during 4-6 h in the absence or in the presence of peptides at the indicated dose. One hour after the beginning of the incubation Brefeldin A (20 μg/ml, Sigma Chemical Co., Steinheim, Germany) was added to inhibit cytokine secretion. At the end of the incubation period cells were stained with anti-CD4 mAb for 20 min at 4° C. and fixed. Cells were then permeabilized using saponine (Sigma, 0.1% in PBS 10% FCS) stained by incubation with mAb against IFN-γ or IL-2 (BD, Pharmingen) and analyzed by flow cytometry. Data analysis was performed using Cell Quest software. […] After 24 h incubation at 37° C., culture supernatants were collected and the content of IFN-γ determined by ELISA (BioSource Europe, Fleurus, Belgium). […] Spots were counted using a stereomicroscope with a magnification of ×15. […]

Assay [3] relates to SSX-2 specific CD4^+ T cells. Description: Presentation of peptide SSX-2 13-34 by APC bearing different HLA-DP alleles (intracellular IFN-γ secretion). The conditions noted are these: healthy donors (Caucasian); not shown. The protocol:
FIG. 3A: Intracellular IFN-γ secretion by SSX-2 specific CD4+ T cells (clone 3C8) upon stimulation with peptide SSX-213-34 was assessed both in the absence and in the presence of anti HLA-DR, -DP or -DQ antibodies. FIG. 3B: The ability of APC bearing different HLA-DP alleles to present peptide SSX-2 13-34 to specific CD4^+ T cells was assessed by intracellular IFN-γ secretion.
Molecular typing of HLA-DP molecules, construction of plasmids and transient transfection. […]
(§2) For intracellular cytokine secretion detection T cells were incubated with APC at a 1:1 T cells:APC ratio during 4-6 h in the absence or in the presence of peptides at the indicated dose. […] Cells were then permeabilized using saponine (Sigma, 0.1% in PBS 10% FCS) stained by incubation with mAb against IFN-γ or IL-2 (BD, Pharmingen) and analyzed by flow cytometry. […] After 24 h incubation at 37° C., culture supernatants were collected and the content of IFN-γ determined by ELISA (BioSource Europe, Fleurus, Belgium). […] Spots were counted using a stereomicroscope with a magnification of ×15. […]

The next assay relates to CD4^+ T cells. Description: Intracellular IFN-γ / IL-2 staining of peptide-stimulated CD4+ T cell cultures from melanoma patients. The conditions noted are these: culture from patient 672; not shown. How it is done: FIGS. 1A and 1B show detection of SSX-2 specific CD4^+ T cells in peptide stimulated cultures. The presence of specific CD4^+ T cells in the culture from patient 672 was assessed by intracellular staining with anti-IFN-γ (FIG. 1A, left panels) or anti-IL-2 antibodies (FIG. 1A, right panels) after stimulation with autologous PBMC alone (upper panels) or with the peptide submixture P1-3 (containing SSX-2 peptides 1-22, 13-34, 25-46). Numbers in upper right quadrants are percent of cytokine producing cells among CD4^+ T cells.
In vitro sensitization of CD4^+ T cells was carried out as described previously for CD8^+ T cells. […]
as §2

The subject of assay [4] is clonal CD8^+ T cells (clone B3.4). In words: Processing of exogenous SSX-2 protein by professional APC and recognition by SSX-2 41-49 specific CD8+ T cells. The conditions noted are these: EBV and DC as APC.
The subject of assay [5] is SSX-2 13-34 specific CD4^+ T cell clone 3C8. Description: Processing of soluble recombinant protein by professional APC and presentation to specific CD4+ T cells (ELISPOT). How it is done: FIG. 5A: The ability of EBV LAU 149 to process the SSX-2 protein and present the relevant epitope to specific CD4+ T cells was assessed by ELISPOT after 12 hrs incubation with soluble recombinant SSX-2 protein followed by washing. NY-ESO-1 protein was used as an internal control. FIGS. 5B and 5C: Processing and presentation of the SSX-2 CD4^+ T cell epitope by LAU 672 autologous monocyte-derived DC was assessed as in FIG. 5A.
as §1
We then assessed the ability of professional APC to process the SSX-2 antigen and present the SSX-2 13-34 epitope to specific CD4^+ T cells.

As to “EKIQKAFDDIAKYFSK (listed as Homo sapiens) [SEQ ID NO:6]”, the “peptide recognition relative to SEQ ID NO:1 (IFN-γ secretion)” value in assay [1] was “did not significantly affect recognition”. Besides, in assay [1] (clone 2C3, similar results with another CD4+ T cell clone), the “epitope mapping: minimal peptide among analyzed peptides” value is listed as “minimal peptide optimally recognized”.

As to “IPEKIQKAFDDIAKYFSK (listed as Homo sapiens) [SEQ ID NO:5]”, in assay [1], the “peptide recognition relative to SEQ ID NO:1 (IFN-γ secretion)” value is reported as “did not significantly affect recognition”.

For “IQKAFDDIAKYFSK (listed as Homo sapiens) [SEQ ID NO:7]”, the “reduction of peptide activity” value in assay [1] (relative to SEQ ID NO:1, clone 2C3, IFN-γ ELISA) was 10 fold.

In the case of “VGAQIPEKIQKAFDDIAKYFSK (listed as Homo sapiens) [SEQ ID NO:1]”, in assay [2], the “presentation of peptide by melanoma cell lines to specific T cell clones” value is recorded as “efficiently presented”. For the same molecule, the “PBMC from healthy donors able to present the epitope to CD4^+ T cells” value in assay [3] is recorded as 3 out of 14. Moreover, the “reactivity of the culture to single peptides in the submixture P1-3” value with CD4^+ T cells is “active peptide”.

B1: SSX-2 protein: soluble recombinant SSX-2 protein given to APC (protein, UniProt Q16385 1-188, looked up)
Protein SSX2: MNGDDAFARRPTVGAQIPEKIQKAFDDIAKYFSKEEWEKMKASEKIFYVYMKRKYEAMTKLGFKATLPPFMCNKRAEDFQGNDLDNDPNRGNQVERPQMTFGRLQGISPKIMPKKPAEEGNDSEEVPEASGPQNDGKELCPPGKPTTSEKIHERSGPKRGEHAWTHRLRERKQLVIYEEISDPEEDDE
As to B1, the “recognition of the CD8^+ T cell epitope SSX-2 41-49 after processing of exogenous protein” value in assay [4] is recorded as “did not result in recognition”. Besides, the “processing of protein and presentation of the epitope / stimulation of clone 3C8” value in assay [5] (EBV LAU 149 as APC, 12 hrs incubation with soluble recombinant protein) is “efficiently process”. In assay [5] (EBV cells unable to present the peptide as APC), the “stimulation of clone 3C8” value was “not significantly stimulated”. In assay [5] (LAU 672 autologous dendritic cells (DC) as APC), the “presentation of the epitope to specific CD4+ T cells” value was “Efficient presentation”.
